We go through 16 molecules from PubChem BioAssay (NCI).

Molecules are shown by their SMILES.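 Results reflect a 48-hour exposure of cells in 96-well plates to compound at five concentrations. TGI is the concentration that stops growth completely.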

Among the test systems are DU-145 prostate; EKVX NSCLC; HCT-116 colon; HOP-92 NSCLC; HS 578T breast; MDA-N; NCI/ADR-RES ovarian; RPMI-8226 leukemia; SF-268 CNS; SF-295 CNS; SF-539 CNS; U251 CNS; UACC-62 melanoma.
Holding throughout (assay): NCI-60 cell line screen, 48 h

On to `O=C1CC(CC(=O)c2ccc(Br)cc2)C(=O)/C1=C(/O)c1ccc(Br)cc1` (stereo not drawn), for which the TGI in the assay on DU-145 prostate, in the assay on EKVX NSCLC, with HCT-116 colon, in the assay on HOP-92 NSCLC, with HS 578T breast and with MDA-N was above 100 µM throughout. The TGI in the assay with NCI/ADR-RES ovarian, in the assay on RPMI-8226 leukemia, in the assay with SF-268 CNS, in the assay on SF-295 CNS, with SF-539 CNS and in the assay with U251 CNS was above 100 µM each time. Also, the TGI in the assay on UACC-62 melanoma was above 100 µM.
On to `CC(=O)c1ccc2c(c1)CC1(C2)Cc2cc3c(c(C(=O)O)c2C1)CCC3` (stereo not drawn), for which the TGI in the assay on DU-145 prostate, in the assay with EKVX NSCLC, in the assay on HCT-116 colon, with HOP-92 NSCLC, in the assay on HS 578T breast and with MDA-N was above 100 µM in each case. The TGI in the assay on NCI/ADR-RES ovarian, in the assay on RPMI-8226 leukemia, with SF-268 CNS, in the assay on SF-295 CNS, with SF-539 CNS and with U251 CNS was above 100 µM each time. In addition, the TGI with UACC-62 melanoma was above 100 µM.
On to `CCC(C)[C@@H](Nc1c(O)c2c(c(O)c1Cl)C(=O)C=CC2=O)C(=O)OC` (stereo partly drawn), for which the TGI was above 10 µM in the assay with DU-145 prostate; above 10 µM with EKVX NSCLC; 6.94 µM in the assay with HCT-116 colon; above 10 µM in the assay on HOP-92 NSCLC; above 10 µM in the assay on HS 578T breast; above 10 µM in the assay on MDA-N. The TGI in the assay with NCI/ADR-RES ovarian was above 10 µM; with RPMI-8226 leukemia, 7.39 µM; with SF-268 CNS it was above 10 µM; in the assay on SF-295 CNS, above 10 µM; with SF-539 CNS, above 10 µM; in the assay on U251 CNS, 8.83 µM. The TGI with UACC-62 melanoma is above 10 µM.
In the case of `CN(C)c1c(C2OC(CO)C(O)C2O)c(=O)c1=O` (stereo not drawn), the TGI with DU-145 prostate, in the assay with EKVX NSCLC, with HCT-116 colon, in the assay on HOP-92 NSCLC, in the assay on HS 578T breast and with MDA-N was above 100 µM each time. The TGI in the assay on NCI/ADR-RES ovarian is above 100 µM; in the assay on RPMI-8226 leukemia it was above 100 µM; in the assay with SF-268 CNS it was above 100 µM; with SF-295 CNS, above 55.4 µM; in the assay on SF-539 CNS, above 100 µM; in the assay on U251 CNS, above 100 µM. For the same molecule, the TGI in the assay on UACC-62 melanoma was above 100 µM.
Regarding `[B-][P+](CC[P+]1([B-])[C@@H](C)[C@@H](O)[C@H](O)[C@@H]1C)(c1ccccc1)c1ccccc1OC` (stereo partly drawn), the TGI with DU-145 prostate worked out at 33.7 µM; with EKVX NSCLC, 25 µM; in the assay on HCT-116 colon, 35.3 µM; with HOP-92 NSCLC, 33 µM; with HS 578T breast it was 22.6 µM; in the assay with MDA-N it was 29.6 µM. Besides, the TGI in the assay with NCI/ADR-RES ovarian amounted to 35.9 µM; with RPMI-8226 leukemia it was 55.4 µM; in the assay on SF-268 CNS, 32.8 µM; in the assay with SF-295 CNS, 29.4 µM; in the assay with SF-539 CNS, 31.6 µM; in the assay on U251 CNS, 30.6 µM. Besides, in the assay on UACC-62 melanoma, the TGI was 28.1 µM.
Take `COC1CC(OC2C(C)OC(OC3C(C)OC(OC4C(C)OC(O[C@H]5CC[C@@]6(C)C(=CC[C@]7(O)[C@@H]6C[C@@H](OC(C)=O)[C@@]6(C)[C@]7(O)CC[C@@]6(O)C(C)=O)C5)CC4OC)CC3OC)CC2OC)OC(C)C1O` (stereo partly drawn): the TGI in the assay with DU-145 prostate, in the assay on EKVX NSCLC, in the assay with HCT-116 colon, in the assay on HOP-92 NSCLC, in the assay on HS 578T breast and with MDA-N was above 25 µM in each case. For the same molecule, the TGI with NCI/ADR-RES ovarian, with RPMI-8226 leukemia, with SF-268 CNS, in the assay with SF-295 CNS, with SF-539 CNS and with U251 CNS was above 25 µM in each case. Further, the TGI with UACC-62 melanoma is above 25 µM.
As for `COC(C)(C)/C=C/c1[nH]c2ccccc2c1CC(=O)NCCc1cn(C(c2ccccc2)(c2ccccc2)c2ccccc2)cn1`, the TGI with DU-145 prostate is above 89.3 µM; in the assay with EKVX NSCLC it was above 100 µM; in the assay with HCT-116 colon, 14.8 µM; in the assay on HOP-92 NSCLC, above 28.3 µM; in the assay on HS 578T breast it was 60.2 µM; in the assay on MDA-N, 19.9 µM. The TGI with NCI/ADR-RES ovarian was above 100 µM; with RPMI-8226 leukemia it was 6.77 µM; in the assay on SF-268 CNS, above 100 µM; with SF-295 CNS, above 31.3 µM; in the assay on SF-539 CNS it was 14.1 µM; in the assay with U251 CNS it was 16.5 µM. This molecule also had a TGI in the assay on UACC-62 melanoma of 21.3 µM.
Take `O=C1Nc2nccnc2C(=O)N2CCC[C@@H]12`: the TGI in the assay on DU-145 prostate, in the assay with EKVX NSCLC, in the assay on HCT-116 colon, in the assay with HOP-92 NSCLC, in the assay on HS 578T breast and with MDA-N was above 100 µM each time. For the same molecule, the TGI with NCI/ADR-RES ovarian, in the assay with RPMI-8226 leukemia, in the assay with SF-268 CNS, in the assay with SF-295 CNS, in the assay on SF-539 CNS and in the assay on U251 CNS was above 100 µM throughout. This molecule registered a TGI in the assay with UACC-62 melanoma above 100 µM.
On to `CC(C)=CCC[C@@H](C)C1=C(O)C(Nc2ccccc2Cl)=C(C)C(=O)C1=O`, for which the TGI in the assay with DU-145 prostate was above 75 µM; in the assay on EKVX NSCLC, above 75 µM; in the assay with HCT-116 colon it was above 50.9 µM; in the assay on HOP-92 NSCLC, above 67.8 µM; in the assay on HS 578T breast it was above 69.9 µM; with MDA-N, above 75 µM. Also, the TGI with NCI/ADR-RES ovarian was 11.9 µM; in the assay on RPMI-8226 leukemia, above 55.8 µM; in the assay with SF-268 CNS, above 75 µM; in the assay with SF-295 CNS, 34.2 µM; in the assay on SF-539 CNS, 35.7 µM; with U251 CNS it was above 75 µM. The same molecule came in with a TGI in the assay on UACC-62 melanoma of 36 µM.
With `CCOC(=O)NC(Nc1ccc(F)cc1)(C(=O)OCC)C(F)(F)F` (stereo not drawn), the TGI in the assay on DU-145 prostate, in the assay with EKVX NSCLC, with HCT-116 colon, in the assay with HOP-92 NSCLC, in the assay on HS 578T breast and in the assay with MDA-N was above 100 µM each time. The TGI in the assay on NCI/ADR-RES ovarian, in the assay on RPMI-8226 leukemia, in the assay with SF-268 CNS, in the assay on SF-295 CNS, in the assay on SF-539 CNS and in the assay on U251 CNS was above 100 µM in each case. The same molecule gave a TGI with UACC-62 melanoma above 100 µM.
For `CC(C)=CCCC(C)CCOS(=O)C(F)(F)F` (stereo not drawn), the TGI in the assay with DU-145 prostate is above 100 µM; in the assay on EKVX NSCLC it was 30.2 µM; in the assay with HCT-116 colon, 30.3 µM; in the assay on HOP-92 NSCLC, above 100 µM; in the assay on HS 578T breast it was 5.31 µM; with MDA-N, 14 µM. Further, the TGI in the assay with NCI/ADR-RES ovarian is 30.4 µM; with RPMI-8226 leukemia, 90.8 µM; in the assay on SF-268 CNS, 44.7 µM; with SF-295 CNS, 86.8 µM; with SF-539 CNS it was above 100 µM; with U251 CNS, 22.9 µM. In the assay with UACC-62 melanoma, the TGI came to 21.7 µM.
Consider `COc1c(C(=O)NCCN(CCNC(=O)c2cccc(-c3cccc(C(=O)N(C)C)c3OC)c2OC)CCNC(=O)c2cccc(-c3cccc(C(=O)N(C)C)c3OC)c2OC)cccc1-c1cccc(C(=O)N(C)C)c1OC`, for which the TGI in the assay with DU-145 prostate is above 100 µM; with EKVX NSCLC, above 100 µM; in the assay on HCT-116 colon, 41.4 µM; with HOP-92 NSCLC, 46.2 µM; in the assay with HS 578T breast it was 87.3 µM; in the assay on MDA-N it was 37.9 µM. The TGI in the assay with NCI/ADR-RES ovarian is above 100 µM; in the assay on RPMI-8226 leukemia it was 63.7 µM; with SF-268 CNS, 47.2 µM; in the assay on SF-295 CNS, above 100 µM; in the assay on SF-539 CNS, 36.2 µM; in the assay on U251 CNS it was above 100 µM. In addition, the TGI in the assay with UACC-62 melanoma turned out to be 67.2 µM.
In the case of `Cc1ccc2nc(C(C)C)c(=O)[nH]c2c1`, the TGI with DU-145 prostate, with EKVX NSCLC, with HCT-116 colon, in the assay with HOP-92 NSCLC, with HS 578T breast and in the assay on MDA-N was above 100 µM throughout. The TGI in the assay with NCI/ADR-RES ovarian, with RPMI-8226 leukemia, in the assay on SF-268 CNS, in the assay on SF-295 CNS, with SF-539 CNS and with U251 CNS was above 100 µM in each case. The molecule further returned a TGI with UACC-62 melanoma above 100 µM.
For `CCOP(=O)(OCC)C(NC(=O)C(C(F)(F)F)C(F)(F)F)c1ccccc1` (stereo not drawn), the TGI in the assay with DU-145 prostate, in the assay on EKVX NSCLC, in the assay on HCT-116 colon, in the assay with HOP-92 NSCLC, in the assay with HS 578T breast and in the assay with MDA-N was above 100 µM throughout. The TGI in the assay on NCI/ADR-RES ovarian is above 100 µM; in the assay on RPMI-8226 leukemia, 67 µM; in the assay with SF-268 CNS, above 100 µM; in the assay on SF-295 CNS it was above 100 µM; with SF-539 CNS, above 100 µM; with U251 CNS it was above 100 µM. Also, the TGI with UACC-62 melanoma was above 100 µM.
On to `O=C1CCc2ccc(O)c(c2)Oc2ccc(cc2)C(Sc2ccccc2)CCO1` (stereo not drawn), for which the TGI in the assay with DU-145 prostate worked out at 46.6 µM; in the assay on EKVX NSCLC it was 28.5 µM; with HCT-116 colon, 29.8 µM; with HOP-92 NSCLC, 22.2 µM; in the assay on HS 578T breast, 36.2 µM; in the assay on MDA-N it was 34.8 µM. The TGI in the assay with NCI/ADR-RES ovarian turned out to be 31.4 µM; with RPMI-8226 leukemia, 36.4 µM; in the assay with SF-268 CNS it was 42.4 µM; in the assay with SF-295 CNS, 38.2 µM; in the assay with SF-539 CNS, 31.4 µM; in the assay with U251 CNS it was 33 µM. The TGI in the assay on UACC-62 melanoma was determined as 32.5 µM.
Turning to `COc1ccccc1/C=C/C1=NN(c2cccc(S(=O)(=O)O)c2)C2(C1)C(Cl)C(=O)N2c1nc2ccccc2s1` (stereo not drawn), the TGI in the assay on DU-145 prostate is above 100 µM; with EKVX NSCLC it was above 100 µM; in the assay with HCT-116 colon it was above 100 µM; in the assay on HOP-92 NSCLC, above 95 µM; in the assay on HS 578T breast, above 100 µM; in the assay with MDA-N, above 100 µM. Also, the TGI with NCI/ADR-RES ovarian was above 100 µM; in the assay on RPMI-8226 leukemia it was 44 µM; in the assay on SF-268 CNS, above 100 µM; in the assay on SF-295 CNS, above 100 µM; in the assay with SF-539 CNS, above 100 µM; with U251 CNS, above 100 µM. The TGI in the assay on UACC-62 melanoma was above 100 µM.
